SMILES strings stand for the structures. Where only a bound is given, the exact number is not on record here.

The experiment addresses T1, human ENT1 (Homo sapiens, UniProt Q99808).
T1 construct: JAR cells expressing ENT1 were purchased from ATCC; host or cells: JAR cells
T1 sequence (Q99808 1-456): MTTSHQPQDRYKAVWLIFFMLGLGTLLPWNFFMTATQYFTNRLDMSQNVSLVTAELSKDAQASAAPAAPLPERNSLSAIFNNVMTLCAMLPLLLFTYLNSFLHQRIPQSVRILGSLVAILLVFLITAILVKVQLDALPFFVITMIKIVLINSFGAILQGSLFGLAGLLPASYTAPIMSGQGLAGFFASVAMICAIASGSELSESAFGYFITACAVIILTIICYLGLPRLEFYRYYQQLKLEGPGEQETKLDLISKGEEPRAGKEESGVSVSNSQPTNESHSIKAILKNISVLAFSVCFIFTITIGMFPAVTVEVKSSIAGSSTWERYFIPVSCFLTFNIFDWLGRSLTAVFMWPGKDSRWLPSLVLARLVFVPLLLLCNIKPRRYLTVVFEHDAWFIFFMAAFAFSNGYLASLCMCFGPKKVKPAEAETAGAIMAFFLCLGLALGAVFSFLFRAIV
In words: ENT1 binding assay (competition with Sahenta-DY647 on JAR cells). The note with it: competition with SAHENTA-DY647 binding; IC50 categorized; read-out: Binding Assay IC50. The protocol:
Compounds of the present disclosure were assayed to show ability to bind to human ENT1. The assay is a competition between a compound of interest and Sahenta-DY647, an ENT1 inhibitor that emits fluorescence (Ex=630 nm, Em=670 nm). By measuring the fluorescence at the end of the assay, one can assess the binding potency of the compounds tested. The compounds of the present disclosure were tested and compared to known ENT inhibitors, dilazep and NBMPR:
JAR cells expressing ENT1 were purchased from ATCC® (HTB-144TM). Cells were cultured in RPMI 1640 medium (LONZA®, #BE12-702F/U1) supplemented with 10% FBS (GIBCO®, #10270-106), 10 mM Hepes (LONZA®, #BE17-737E), 1 mM Sodium Pyruvate (LONZA®, #BE13-115E), and 2% Penicillin/Streptomycin (LONZA®, #DE17-603E) at 37° C. and 5% CO2.
The assay was conducted with the following buffer on the day of the assay: HBSS (LONZA®, #LO-527F) supplemented with 10 mM Hepes (LONZA®, #BE17-737E) and 0.1% BSA (Miltenyi®, #130-091-376).
JAR cells were resuspended in the described buffer. The compounds of interest and Sahenta-DY647 were diluted 200× with the described buffer.
A total of 50,000 cells were pre-incubated for 30 min at 4° C. with the compounds of the present disclosure before adding the corresponding amount of Sahenta-DY647 (100 nM) to the minimal concentration at Bmax and incubating for an additional 30 min at 4° C. The total volume of the reaction was 100 μL (50 μL of cells, 25 μL of the compounds of the present disclosure, and 25 μL of Sahenta-DY647) in a U-bottom 96 well plate (Greiner®, #650-180). The plates were washed 2× by centrifugation (4 min, 400 rcf at 4° C.) in the same buffer. Cells were re-suspended in 70 μL of the buffer and 50 μL was transferred to a Black 384 Optiplate (PerkinElmer®, #6007279). Fluorescence (Ex=630 nm, Em=670 nm) was acquired on a Spectramax i3x (Molecular Devices®).
Dose-response data from the compounds were analyzed with Graphpad Prism 9.1.1@software, using nonlinear regression applied to a sigmoidal dose-response model and the following equation:
Y=Bottom+(Top-Bottom)/(1+10^((LogIC50−X)*HillSlope)), with a shared bottom and top between the test reagent and dipyridamole.
Data from multiple experiments were compiled by taking the average pIC50 value for the reagent in question±the standard deviation (s.d.) and expressing it as an average IC50 value in nM.
The inhibitory effect of the test compound was expressed as a percentage of the inhibition of SAHENTA-DY647 binding.
For the compound `CC1OC(n2c(NC3CCC(C)(O)CC3)nc3c(OCc4ccc([N+](=O)[O-])cc4)ncnc32)C(O)C1O` (single isomer, unassigned) [Compound 117], the 50% inhibitory concentration (IC50) fell in the range of 1 to 20 nM.

`CC1OC(n2c(NC3CCC(C)(O)CC3)nc3c(OCc4ccc([N+](=O)[O-])cc4)ncnc32)C(O)C1O` (single isomer, unassigned) [Compound 118]: the IC50 lay in the range of 1 to 20 nM.

As to `CC1OC(n2c(NC3CC(C)(O)C3)nc3c(OCc4ccc([N+](=O)[O-])cc4)ncnc32)C(O)C1O` (single isomer, unassigned) [Compound 133], the half-inhibitory concentration (IC50) lay in the range of 1 to 20 nM.

Regarding `CC1OC(n2c(NC3CC(C)(O)C3)nc3c(OCc4ccc([N+](=O)[O-])cc4)ncnc32)C(O)C1O` (single isomer, unassigned) [Compound 134], the IC50 was below 1 nM.

Consider `CC1OC(n2c(NC3CC(C)(O)C3)nc3c(N4CCc5ccc([N+](=O)[O-])cc5C4)ncnc32)C(O)C1O` (single isomer, unassigned) [Compound 137], for which the half-inhibitory concentration (IC50) is below 1 nM.

With `CC1OC(n2c(NC3CC(C)(O)C3)nc3c(N4CCc5ccc([N+](=O)[O-])cc5C4)ncnc32)C(O)C1O` (single isomer, unassigned) [Compound 141], the IC50 was below 1 nM.

For `Cc1cn(C2OC(C)C(O)C2O)c2ncnc(SCc3ccc([N+](=O)[O-])cc3)c12` (single isomer, unassigned) [Compound 194], the IC50 was in the range of 20 to 500 nM.

With `Cc1cn(C2OC(C)C(O)C2O)c2ncnc(SCc3ccc([N+](=O)[O-])cc3)c12` (single isomer, unassigned) [Compound 286], the IC50 is above 500 nM.

In the case of `C[C@H]1O[C@@H](n2c(N(C)C3CCCC3)nc3c(OCc4ccc([N+](=O)[O-])cc4)ncnc32)[C@H](O)[C@@H]1O` [Compound 1], the IC50 was above 500 nM.

Consider `C[C@H]1O[C@@H](n2c(C(=O)NC3CCCC3)nc3c(OCc4ccc([N+](=O)[O-])cc4)ncnc32)[C@H](O)[C@@H]1O` [Compound 3], for which the concentration for half-maximal inhibition (IC50) fell in the range of 20 to 500 nM.

With `C[C@H]1O[C@@H](n2c(N)nc3c(OCc4ccc([N+](=O)[O-])cc4)ncnc32)[C@H](O)[C@@H]1O` [Compound 4], the IC50 is 20 to 500 nM.

With `C[C@H]1O[C@@H](n2c(NCCOc3ccccc3)nc3c(OCc4ccc(OC(F)F)cc4)ncnc32)[C@H](O)[C@@H]1O` [Compound 7], the IC50 was in the range of 1 to 20 nM.

Turning to `C[C@H]1O[C@@H](n2c(-c3cnn(C)c3)nc3c(OCc4ccc([N+](=O)[O-])cc4)ncnc32)[C@H](O)[C@@H]1O` [Compound 13], the IC50 lay in the range of 20 to 500 nM.

With `Cc1cc(COc2ncnc3c2nc(NC2CCCC2)n3[C@@H]2O[C@H](C)[C@@H](O)[C@H]2O)ccn1` [Compound 15], the 50% inhibitory concentration (IC50) was 20 to 500 nM.

Consider `CNc1nc2c(OCc3ccc([N+](=O)[O-])cc3)ncnc2n1[C@@H]1O[C@H](C)[C@@H](O)[C@H]1O` [Compound 19], for which the IC50 was 20 to 500 nM.

In the case of `C[C@H]1O[C@@H](n2c(NCCN3CCCC3)nc3c(OCc4ccc([N+](=O)[O-])cc4)ncnc32)[C@H](O)[C@@H]1O` [Compound 32], the IC50 was in the range of 20 to 500 nM.

As to `C[C@H]1O[C@@H](n2c(NCCN3CCN(C)CC3)nc3c(OCc4ccc([N+](=O)[O-])cc4)ncnc32)[C@H](O)[C@@H]1O` [Compound 33], the IC50 lay in the range of 20 to 500 nM.

Turning to `C[C@H]1O[C@@H](n2c(Nc3cn[nH]c3)nc3c(OCc4ccc([N+](=O)[O-])cc4)ncnc32)[C@H](O)[C@@H]1O` [Compound 35], the IC50 is below 1 nM.

`CCNc1nc2c(OCc3ccc(C#N)cc3)ncnc2n1[C@@H]1O[C@H](C)[C@@H](O)[C@H]1O` [Compound 37]: the IC50 lay within 1 to 20 nM.

With `CCNc1nc2c(OCc3ccc(OC(F)F)cc3)ncnc2n1[C@@H]1O[C@H](C)[C@@H](O)[C@H]1O` [Compound 38], the half-inhibitory concentration (IC50) fell in the range of 1 to 20 nM.

For `C[C@H]1O[C@@H](n2c(NC3CC3)nc3c(OCc4ccc(C#N)cc4)ncnc32)[C@H](O)[C@@H]1O` [Compound 39], the half-inhibitory concentration (IC50) is 1 to 20 nM.

As for `C[C@H]1O[C@@H](n2c(NCCO)nc3c(OCc4ccc(C#N)cc4)ncnc32)[C@H](O)[C@@H]1O` [Compound 41], the half-maximal inhibitory concentration (IC50) was 20 to 500 nM.

With `C[C@H]1O[C@@H](n2c(NCCO)nc3c(OCc4ccc(OC(F)F)cc4)ncnc32)[C@H](O)[C@@H]1O` [Compound 42], the half-inhibitory concentration (IC50) fell in the range of 1 to 20 nM.

Turning to `C[C@H]1O[C@@H](n2c(NCCCO)nc3c(OCc4ccc(C#N)cc4)ncnc32)[C@H](O)[C@@H]1O` [Compound 43], the 50% inhibitory concentration (IC50) was in the range of 20 to 500 nM.

On to `COCCCNc1nc2c(OCc3ccc(C#N)cc3)ncnc2n1[C@@H]1O[C@H](C)[C@@H](O)[C@H]1O` [Compound 45], for which the half-inhibitory concentration (IC50) is 1 to 20 nM.

For `C[C@H]1O[C@@H](n2c(N[C@H]3C[C@@H](O)C3)nc3c(OCc4ccc([N+](=O)[O-])cc4)ncnc32)[C@H](O)[C@@H]1O` [Compound 48], the IC50 lay within 1 to 20 nM.

For the compound `C[C@H]1O[C@@H](n2c(N[C@H]3C[C@H](O)C3)nc3c(OCc4ccc(C#N)cc4)ncnc32)[C@H](O)[C@@H]1O` [Compound 50], the half-maximal inhibitory concentration (IC50) is below 1 nM.

Regarding `C[C@H]1O[C@@H](n2c(N[C@H]3C[C@@H](O)C3)nc3c(OCc4ccc(C#N)cc4)ncnc32)[C@H](O)[C@@H]1O` [Compound 51], the IC50 lay within 1 to 20 nM.

Turning to `C[C@H]1O[C@@H](n2c(NC3CCC(O)CC3)nc3c(OCc4ccc(C#N)cc4)ncnc32)[C@H](O)[C@@H]1O` (some centres unmarked) [Compound 52], the IC50 was below 1 nM.

On to `C[C@H]1O[C@@H](n2c(N[C@H]3CC[C@@H](O)CC3)nc3c(OCc4ccc([N+](=O)[O-])cc4)ncnc32)[C@H](O)[C@@H]1O` [Compound 56], for which the half-maximal inhibitory concentration (IC50) is below 1 nM.

As to `C[C@H]1O[C@@H](n2c(N[C@H]3CC[C@H](O)CC3)nc3c(OCc4ccc([N+](=O)[O-])cc4)ncnc32)[C@H](O)[C@@H]1O` [Compound 57], the IC50 was below 1 nM.

As for `C[C@H]1O[C@@H](n2c(NCCCS(C)(=O)=O)nc3c(OCc4ccc([N+](=O)[O-])cc4)ncnc32)[C@H](O)[C@@H]1O` [Compound 60], the IC50 fell in the range of 1 to 20 nM.

`C[C@H]1O[C@@H](n2c(NCCCS(C)(=O)=O)nc3c(OCc4ccc(C#N)cc4)ncnc32)[C@H](O)[C@@H]1O` [Compound 61]: the IC50 was 20 to 500 nM.

With `C[C@H]1O[C@@H](n2c(NCCCS(C)(=O)=O)nc3c(OCc4ccc(OC(F)F)cc4)ncnc32)[C@H](O)[C@@H]1O` [Compound 62], the IC50 was in the range of 1 to 20 nM.

`C[C@H]1O[C@@H](n2c(Nc3cnn(C)c3)nc3c(OCc4ccc(C#N)cc4)ncnc32)[C@H](O)[C@@H]1O` [Compound 63]: the half-inhibitory concentration (IC50) lay in the range of 20 to 500 nM.

As for `Cc1nn(C)c(C)c1CNc1nc2c(OCc3ccc([N+](=O)[O-])cc3)ncnc2n1[C@H]1O[C@H](C)[C@@H](O)[C@H]1O` [Compound 67], the concentration for half-maximal inhibition (IC50) is below 1 nM.

Consider `C[C@H]1O[C@@H](n2c(NCc3ncn(C)n3)nc3c(OCc4ccc(C#N)cc4)ncnc32)[C@H](O)[C@@H]1O` [Compound 69], for which the IC50 fell in the range of 20 to 500 nM.

As to `Cc1ncc(CNc2nc3c(OCc4ccc(C#N)cc4)ncnc3n2[C@@H]2O[C@H](C)[C@@H](O)[C@H]2O)cn1` [Compound 71], the IC50 is 1 to 20 nM.

For `COc1ncc(CNc2nc3c(OCc4ccc(C#N)cc4)ncnc3n2[C@@H]2O[C@H](C)[C@@H](O)[C@H]2O)cn1` [Compound 72], the IC50 is 1 to 20 nM.

With `C[C@H]1O[C@@H](n2c(N[C@@H]3CCC(F)(F)C3)nc3c(OCc4ccc([N+](=O)[O-])cc4)ncnc32)[C@H](O)[C@@H]1O` [Compound 83], the IC50 is below 1 nM.

With `C[C@H]1O[C@@H](n2c(N[C@H]3CCC(F)(F)C3)nc3c(OCc4ccc([N+](=O)[O-])cc4)ncnc32)[C@H](O)[C@@H]1O` [Compound 84], the IC50 is below 1 nM.

The record behind these values is patent US20260184712A1, “Heterocyclic Compounds as ENT Inhibitors and Compounds for Use in the Treatment of Cancers” (iTeos Belgium SA, priority 2022, published 2026).
